Reference: patent US8865897B2, “Crystal modifications-3-(1H-indol-3-yl)-4- [4-methyl-piperazin-1-yl)-quinazolin-4-yl] -pyrrole-2, 5-D ione” (Novartis AG, priority 2006, dated 2014)
Where two headings read alike, the source gives them in different places.

CC(=O)O.CN1CCN(c2nc(C3=C(c4c[nH]c5ccccc45)C(=O)NC3=O)c3ccccc3n2)CC1 [Form B, 3-(1.H.-indol-3-yl)-4-[2-(4-methyl-piperazin-1-yl)-quinazolin-4-yl]-pyrrole-2,5-dione acetate]
Moisture Sorption at 25° (Relative humidity 45 %): 0.4 | Moisture Sorption at 25° (Relative humidity 55 %): 0.5 | Moisture Sorption at 25° (Relative humidity 75 %): 0.6 | Moisture Sorption at 25° (Relative humidity 85 %): 0.7 | Moisture Sorption at 25° (Relative humidity 95 %): 0.6 | XRPD pattern after DVS (after DVS moisture sorption at 25°): no change | maximum water uptake (at 80% r.h.): 0.7%
